According to PMC8316980 (ACS chemical neuroscience, 2019):

Molecular target: T1, MD-2 (myeloid differentiation protein 2) (Homo sapiens, UniProt Q9Y6Y9)
T1 sequence (Q9Y6Y9 19-160): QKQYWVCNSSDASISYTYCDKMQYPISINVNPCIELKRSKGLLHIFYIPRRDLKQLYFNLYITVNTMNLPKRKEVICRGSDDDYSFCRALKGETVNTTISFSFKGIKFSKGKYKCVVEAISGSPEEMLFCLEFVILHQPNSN
Assay: intrinsic fluorescence quenching titration
Type: binding

SMILES: CN[C@@H](C)Cc1ccccc1 [methamphetamine]
- Kd: 6.7 ± 0.6 µM
